Laboratory results as given in patent US7390873B2, “Antimicrobial cationic peptides” (University of British Columbia, priority 1995, dated 2008).
Where no end group is shown, it is not given here.

Columns and labels:
[1] = test system: T-lymphocytes
[2] = test system: Candida albicans C627; assay type: cell-based; details: C627, 24 h
[3] = test system: Pseudomonas aeruginosa K799; assay type: cell-based; details: K799, 24 h
Experimental: (§1) Any of the art-known methods for measuring antimicrobial activity of peptides can be used in characterizing the peptides of the invention. In these examples, conventional methods were used to determine the minimal inhibitory concentration (MIC) of a peptide in a liquid medium (Amsterdam. Antibiotics in Laboratory Medicine, Williams and Wilkins, Baltimore (1991) 72-78). Briefly, overnight cultures of the test organisms (described below) were diluted to produce an inoculum containing approximately 10^4 to 10^5 organisms. The inoculum size was confirmed by counting the number of organisms on plates that were inoculated at the same time as the liquid cultures.
(§2) The concentration of peptide was measured by assaying for free amino groups using a dinitrophenylation assay, with polymyxin B serving as a standard. Doubling dilutions of peptide were performed (32 μg/ml-0.25 μg/ml) in 100 μl volumes in a 96-well mictrotiter plate, and all wells were subsequently inoculated with the diluted culture of the test organism. After 24 hours of incubation at 37° C., the assay was read. The MIC value is the concentration of peptide at which the growth of the test organism was reduced by 50%. The number of cells in the culture inoculum was calculated from the plate count after incubating the plate for 24 hours at 37° C. The medium used for cell culture and dilution in this assay was Luria broth (LB). Each peptide was tested three times against each organism, and the MIC values presented below are the mean values of the three experiments.

[4] = test system: Staphylococcus aureus RN4220; assay type: cell-based; details: RN4220, 24 h
Experimental: as §1, §2

[5] = test system: Staphylococcus epidermidis C621; assay type: cell-based; details: C621, 24 h
Experimental: as §1, §2

[6] = test system: E. coli UB1005; assay type: cell-based; details: UB1005, 24 h
Experimental: as §1, §2

[7] = Mortality after injection of peptide in mice; assay type: in vivo; details: 200 μg peptide IP
Experimental: The ability of indolicidin and variants to protect against LPS-induced endotoxemia was assessed in vivo. Mice (8-10 weeks old) were injected intraperitoneally (IP) with 20 mg D-galactosamine (Dgal) to sensitive them to LPS according to the model of Galanos (Galanos, C., M. A., Freudenberg and W. Reutter, 1979, Galactosamine sensitization to the lethal effects of endotoxin. Proc. Natl. Acad. Sci. USA 76:5939), followed by 200 μg peptide in 100 μl. Immediately afterwards LPS (10 μg) in 100 μl was injected. The mice were observed 24 hours after injections and survivors noted. […] When Dgal and LPS were also injected, that 200 μg of indolicidin reduced mortality reduced at 24 hours from 100% in controls to 60%.

[8] = test system: human red blood cells; assay: Lysis of red blood cells; assay type: cell-based
Experimental: Freshly collected human blood was mixed with heparin and centrifuged to remove the buffy coat. The resulting erythrocytes were washed three times in 0.85% saline and stored at 4° C. Serial dilutions of the peptides in saline were prepared in round bottomed microtitre plates using 100 μl volumes. Red blood cells were diluted with saline to 1/25 of the packed volume of cells and 50 μl of red blood cells were added to each well. Plates were incubated while rocking at 37° C., and the concentration of peptide required for red blood cell lysis of more than 80% of cells (i.e., visible lysis) was determined at 4 and 24 hours (Table 7).

ILKKWPWWPWRRK [CP-11]
Toxicity to T-lymphocytes compared with indolicidin [1]: less toxic than indolicidin
MIC C. albicans [2]: 8 mg/L
MIC P. aeruginosa [3]: 16 mg/L
MIC S. aureus [4]: 16 mg/L
MIC S. epidermidis [5]: 2 mg/L
MIC E. coli [6]: 4 mg/L
Mortality after injection of peptide [7]: did not cause mortality
Lowest concentration causing lysis, 4 hours [8]: >128 µg/mL
Lowest concentration causing lysis, 24 hours [8]: >128 µg/mL
